Laboratory results taken from publication PMC4460186, “Fast and reliable production, purification and characterization of heat-stable, bifunctional enzyme chimeras” (AMB Express, 2015).

How the values were obtained:
CB = system: T1, CB; test: 4-nitrophenol release, absorbance at […] nm; type: biochemical, uncultured archaeon; details: 10 mM NaPO4 pH 7.0, 80°C (standard assay); read-out: Substrate, 4-NP-β-D-GP / KM
T1 construct: gene bgl1; single-polypeptide fusion HIS-Cel5A-Bgl1-STREP, Ser-Ser linker, tags kept; from E. coli M15[pREP4]; truncated STREP-tagged Bgl1 degradation products remain in eluate; with Endoglucanase

BC = system: T2, BC; test: 4-nitrophenol release, absorbance at […] nm; type: biochemical, uncultured archaeon; details: 10 mM NaPO4 pH 7.0, 80°C (standard assay); read-out: Substrate, 4-NP-β-D-GP / KM
T2 construct: gene bgl1; single-polypeptide fusion HIS-Bgl1-Cel5A-STREP, Ser-Ser linker, tags kept; from E. coli M15[pREP4]; with Endoglucanase

Km (CB): 530 µM | Km (BC): 530 µM
SMILES: O=[N+]([O-])c1ccc(O[C@@H]2O[C@H](CO)[C@@H](O)[C@H](O)[C@H]2O)cc1 [4-NP-β-D-GP, 4-nitrophenyl-β-D-glucopyranoside]
